Reference: ChEMBL document CHEMBL1806406, “Antiplasmodial and cytotoxicity evaluation of 3-functionalized 2-azetidinone derivatives” (Bioorg Med Chem Lett, 2011)

Legend:
[1] = system: Plasmodium falciparum; experiment: Antiplasmodial activity against chloroquine-resistant Plasmodium falciparum K1; assay type: functional, organism-based
[2] = system: Plasmodium falciparum; experiment: Antiplasmodial activity against chloroquine-resistant Plasmodium falciparum W2; assay type: functional, organism-based
[3] = system: KB; experiment: Cytotoxicity against human KB cells assessed as growth inhibition at 10 uM; assay type: functional; conditions: read-out: GI
[4] = system: KB; experiment: Cytotoxicity against human KB cells assessed as growth inhibition at 100 uM; assay type: functional; conditions: read-out: GI
[5] = system: KB; experiment: Cytotoxicity against human KB cells assessed as growth inhibition; assay type: functional, cell-based
[6] = system: Plasmodium falciparum; experiment: Antiplasmodial activity against chloroquine-sensitive Plasmodium falciparum 3D7; assay type: functional, organism-based
[7] = system: Plasmodium falciparum; experiment: Antiplasmodial activity against chloroquine-sensitive Plasmodium falciparum D10; assay type: functional, organism-based
[8] = system: KB; experiment: Cytotoxicity against human KB cells assessed as growth inhibition at 0.5 uM; assay type: functional; conditions: read-out: GI

| SMILES | IC50 [1] [µM] | IC50 [2] [µM] | inhibition of growth at 10 µM [3] [%] | inhibition of growth at 100 µM [4] [%] | IC50 [5] [µM] | IC50 [6] [µM] | IC50 [7] [µM] | inhibition of growth at 0.5 µM [8] [%] |
| --- | --- | --- | --- | --- | --- | --- | --- | --- |
| COC(=O)c1nnn([C@@H]2C(=O)N(c3ccc(Cl)cc3)[C@@H]2/C=C/c2ccccc2)c1C(=O)OC | 12.3 | > 20 | 19.5 | 56.5 | 145 | 25.1 |  |  |
| COC(=O)c1nnn([C@@H]2C(=O)N(c3ccc(C)cc3)[C@@H]2/C=C/c2ccccc2)c1C(=O)OC |  | > 20 |  |  |  |  |  |  |
| COC(=O)c1nnn([C@@H]2C(=O)N(C3CCCCC3)[C@@H]2/C=C/c2ccccc2)c1C(=O)OC | > 45.7 | > 20 | -7.7 | 8.07 | > 228 | > 45.7 |  |  |
| O=C1[C@@H](n2cc(-c3ccccc3)nn2)[C@@H](/C=C/c2ccccc2)N1c1ccc(Cl)cc1 | 7.09 | 1 | 16.8 | 79.3 | 84.2 | 7.86 |  |  |
| [N-]=[N+]=N[C@@H]1C(=O)N(c2ccc(Cl)cc2)[C@@H]1/C=C/c1ccccc1 |  |  |  |  |  |  | 4.47 |  |
| Cc1ccc(N2C(=O)[C@@H](N)[C@H]2/C=C/c2ccccc2)cc1 |  |  |  |  |  |  | 59.9 |  |
| COc1cc([C@@H]2c3cc4c(cc3[C@H](O)[C@H]3COC(=O)[C@H]23)OCO4)cc(OC)c1OC [PODOFILOX] |  |  |  |  | 0.0005 |  |  | 81.5 |
| N[C@@H]1C(=O)N(c2ccccc2)[C@@H]1/C=C/c1ccccc1 |  |  |  |  |  |  | 29.3 |  |
| Cc1ccc(N2C(=O)[C@@H](N=[N+]=[N-])[C@H]2/C=C/c2ccccc2)cc1 |  |  |  |  |  |  | 5.83 |  |
| CCN(CC)CCCC(C)Nc1ccnc2cc(Cl)ccc12 (stereo unspecified) [CHLOROQUINE] |  |  | 31.4 | 97 | 36 |  |  |  |
| Cc1ccc(N2C(=O)[C@@H](n3cc(-c4ccccc4)nn3)[C@H]2/C=C/c2ccccc2)cc1 | 3.42 | 1 | 14.7 | 80.8 | 89.2 | 12 |  |  |
| O=C1[C@@H](n2cc(-c3ccccc3)nn2)[C@@H](/C=C/c2ccccc2)N1c1ccccc1 | > 51 | 11.7 | 10 | 58.3 | 91.2 | > 51 |  |  |
| O=C1[C@@H](n2cc(-c3ccccc3)nn2)[C@@H](/C=C/c2ccccc2)N1C1CCCCC1 | 1.21 | 1 | 76.8 | 99.7 | 8.36 | 1.13 |  |  |
| [N-]=[N+]=N[C@@H]1C(=O)N(Cc2ccccc2)[C@@H]1/C=C/c1ccccc1 |  |  |  |  |  |  | 4.7 |  |
| [N-]=[N+]=N[C@@H]1C(=O)N(c2ccccc2)[C@@H]1/C=C/c1ccccc1 |  |  |  |  |  |  | 10.3 |  |
| [N-]=[N+]=N[C@@H]1C(=O)N(C2CCCCC2)[C@@H]1/C=C/c1ccccc1 |  |  |  |  |  |  | 2.36 |  |
| N[C@@H]1C(=O)N(c2ccc(Cl)cc2)[C@@H]1/C=C/c1ccccc1 |  |  |  |  |  |  | 38.1 |  |
| N[C@@H]1C(=O)N(C2CCCCC2)[C@@H]1/C=C/c1ccccc1 |  |  |  |  |  |  | 18.6 |  |
